Test results published in paper PMC4177951, “Identification and Functional Expression of a Glutamate- and Avermectin-Gated Chloride Channel from Caligus rogercresseyi, a Southern Hemisphere Sea Louse Affecting Farmed Fish” (PLoS Pathogens, 2014).

Legend:
CrGluClα = molecular target: T1, CrGluClα (Caligus rogercresseyi, UniProt A0A1W6LZ70); assay: two-electrode voltage clamp in Xenopus oocytes expressing the channel; agonist concentration-response; type: cell-based
T1 construct: full-length ORF (clones CrGluCl-Vald13 and CrGluCl-Vald2)

CrGluClα-T318A = molecular target: T2, CrGluClα-T318A (Caligus rogercresseyi, UniProt A0A1W6LZ70, T318A); assay: two-electrode voltage clamp in Xenopus oocytes; concentration-response of small evoked currents (Figure 9D); type: cell-based
T2 construct: full ORF in pCR3.1, homopentamer expressed in Xenopus laevis oocytes, T318A point mutant at extracellular end of M3
T2 sequence (A0A1W6LZ70 33-463 T318A): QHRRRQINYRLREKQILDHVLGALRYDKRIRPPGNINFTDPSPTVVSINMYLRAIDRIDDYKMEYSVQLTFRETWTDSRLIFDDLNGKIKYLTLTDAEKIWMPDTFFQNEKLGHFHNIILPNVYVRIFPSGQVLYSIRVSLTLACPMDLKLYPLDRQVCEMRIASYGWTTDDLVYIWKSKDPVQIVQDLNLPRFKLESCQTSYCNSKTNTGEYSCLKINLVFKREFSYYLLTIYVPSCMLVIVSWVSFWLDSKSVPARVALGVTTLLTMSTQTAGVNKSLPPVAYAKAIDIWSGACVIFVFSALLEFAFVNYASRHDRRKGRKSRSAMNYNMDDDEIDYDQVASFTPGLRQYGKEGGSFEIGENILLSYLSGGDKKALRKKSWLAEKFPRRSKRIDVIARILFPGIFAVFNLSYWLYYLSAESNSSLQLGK

T1 sequence (A0A1W6LZ70 entry or part of it): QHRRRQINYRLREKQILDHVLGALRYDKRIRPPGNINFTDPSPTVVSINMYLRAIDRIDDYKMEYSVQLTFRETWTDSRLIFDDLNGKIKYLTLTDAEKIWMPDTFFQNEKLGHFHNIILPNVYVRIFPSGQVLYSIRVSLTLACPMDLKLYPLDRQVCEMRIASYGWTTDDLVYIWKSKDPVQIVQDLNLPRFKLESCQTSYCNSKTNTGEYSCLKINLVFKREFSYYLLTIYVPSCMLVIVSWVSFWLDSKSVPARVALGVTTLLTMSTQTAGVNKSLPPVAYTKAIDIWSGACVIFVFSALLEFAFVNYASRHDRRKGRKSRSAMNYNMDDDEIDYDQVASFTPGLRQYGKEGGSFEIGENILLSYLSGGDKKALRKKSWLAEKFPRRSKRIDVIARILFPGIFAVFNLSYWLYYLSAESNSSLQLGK

N[C@@H](CCC(=O)O)C(=O)O [L-glutamate]
EC50 (CrGluClα): 6.89 ± 0.83 µM | concentration-response of evoked currents (CrGluClα-T318A): Maximal response was reached at lower glutamate concentrations in the CrGluClα-T318A mutant channel.
